From patent US20070161546A1, “Methods and compositions for treatment of cancer” (priority 2005, published 2007)

What was measured:
[1] = system: Ehrlich ascites tumor cell; settings: mice, 14 days after inoculation with cancer cells
Text: The injection is repeated over a period of several days. Fourteen days later after the initial inoculation with cancer cells, each of the treated mice are anesthetized.
The solid tumor growing in the abdominal section is carefully isolated from other organ tissues, cleaned using filter papers and weighed. For the test and the control group, the average weight of the cancerous tissue was tabulated and evaluated by the t-test.

[2] = system: human monocyte-derived macrophages (MDMs); settings: p38 MAPK inhibitor added to Z-100; cited from earlier work

Row | Compound | anticancer effect (average weight of the cancerous tissue), agent alone [1] | effect on Z-100-induced effects (repression of HIV-1 replication) [2]
1 | O=P1(N(CCCl)CCCl)NCCCO1 (centres unmarked) [cyclophosphamide, Cyclophosphamide] | anticancer effects of similar magnitude | 
2 | C[S+]([O-])c1ccc(-c2nc(-c3ccncc3)c(-c3ccc(F)cc3)[nH]2)cc1 (centres unmarked) [SB 203580] |  | alleviated
